Measurements reported in article PMC12311729, “Probing the Mechanism of L‑DOPA 2,3-Dioxygenase Using Synthetic Derivatives of 3,4-Dihydroxyhydrocinnamic Acid” (ACS Omega, 2025).

What was measured:
[1] = molecular target: L-DOPA 2,3-dioxygenase from S. lincolnensis (LmbB1) (Streptomyces lincolnensis, UniProt Q54354); experiment: UV-visible steady-state assay of L-DOPA 2,3-dioxygenase (LmbB1); format: biochemical; conditions: for kSP, O2 (μM^-1 min^-1) at pH 7.5 relative to L-DOPA x 100 for LmbB1: percentage of the value for L-DOPA
Chain of L-DOPA 2,3-dioxygenase from S. lincolnensis (LmbB1) (Q54354 entry or part of it): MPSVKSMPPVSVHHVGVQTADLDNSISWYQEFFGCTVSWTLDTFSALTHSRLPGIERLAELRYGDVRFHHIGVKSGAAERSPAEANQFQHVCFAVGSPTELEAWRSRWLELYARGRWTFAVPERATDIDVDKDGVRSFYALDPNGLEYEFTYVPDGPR
Protocol: (§1) Purified, reconstituted L-DOPA 2,3-dioxygenases were assessed for activity by monitoring the cleavage of catecholic substrates using UV–visible spectroscopy. 3,4-Dihydroxyhydrocinnamic acid (DHHCA, 3) was purchased from Sigma-Aldrich. 6-CyanoDHHCA (5) and 6-bromoDHHCA (4) were synthesized as described above.
(§2) Molecular oxygen (AirGas) was bubbled directly into the reaction buffer through a glass-bonded silica gas diffuser (Bubblemac Industries, Inc.) or as a gas mixture blended with air (AirGas). Solutions were bubbled with oxygen for several minutes prior to use and for the duration of the experiment. To determine the K M for oxygen (i.e., K MO2), L-DOPA 2,3-dioxygenases (0.25–4.0 μM) were reacted with a saturating concentration of the catecholic substrate DHHCA/6-X-DHHCA derivatives (2–10× the K M sufficient to achieve k cat) and various oxygen concentrations (21–100% or 270–1300 μM at 22 °C). The concentration of oxygen was varied by changing the percentage of oxygen in the blend using a galvanic oxygen sensor and oxygen monitor (AirGas) and then bubbling solutions, as described above. Molecular oxygen percentages were converted to molar concentrations using a reference temperature of 22 °C. The reaction of L-DOPA 2,3-dioxygenases with DHHCA/6-X-DHHCA derivatives as a function of oxygen concentration was followed by the appearance of the steady-state cleavage product by using UV–visible spectroscopy.
(§3) The extinction coefficients for steady-state cleavage products of DHHCA and synthetic 6-X-DHHCA derivatives were determined by reacting various concentrations of DHHCA/6-X-DHHCA derivatives at 22 °C with a 10-fold stoichiometric excess of enzyme (quantified by Fe^II–see Reconstitution) in 50 mM HEPES buffer with 154 mM NaCl at pH 7.5, bubbled with 100% oxygen to a final concentration of 780–910 μM, depending on the volume of oxygenated buffer that comprised the reaction (60–70%). Substrate solutions were prepared from authentic synthetic standards using an analytical balance, and reactions were run to completion as assessed by the appearance of the steady-state product. The λmax and extinction coefficients of DHHCA, 6-cyanoDHHCA, and 6-bromoDHHCA were determined herein as ε380 = 40 740 ± 820 M^–1cm^–1, ε385 = 33 256 ± 484 M^–1cm^–1, and ε380 = 35 282 ± 1190 M^–1cm^–1, respectively (Figure S52).
(§4) Steady-state kinetic data were obtained through a UV–visible spectroscopic assay. Initial rates were obtained from the slopes of the linear regions of the progress curves and plotted versus substrate concentration to yield a hyperbola, which was analyzed using the Michaelis–Menten expression and nonlinear least-squares fitting (NLSF) with Origin 6.0 (Microcal). Two possible derivations of the Michaelis–Menten expression were used: 1) the traditional expression y = k cat × x/(K M + x), where y is Rate/E 0 or the rate of product formation (μM/min) divided by the starting enzyme concentration (μM), x is substrate concentration (μM) and k SP (also known as k cat × K M ^–1)–that is, the second-order rate constant of enzyme and substrate–is extracted from the fitted constants; or 2) the alternative derivation that extracts k SP and k cat directly from the fit: y = (k SP × x)/((1 + k SP × x)/k cat), and where y is Rate/E 0 or the rate of product formation (μM/min) divided by the starting enzyme concentration (μM), x is substrate concentration (μM), k SP is equivalent to k cat×K M ^–1, and K M is extracted from k cat/k cat×K M ^–1.

[2] = molecular target: L-DOPA 2,3-dioxygenase from S. hygroscopicus jingganensis (ShjDDO) (Streptomyces hygroscopicus, UniProt H2JL11); experiment: UV-visible steady-state assay of L-DOPA 2,3-dioxygenase (ShjDDO); format: biochemical; conditions: for kSP, O2 (μM^-1 min^-1) at pH 7.5 relative to L-DOPA x 100 for ShjDDO: percentage of the value for L-DOPA
Chain of L-DOPA 2,3-dioxygenase from S. hygroscopicus jingganensis (ShjDDO) (H2JL11 1-162): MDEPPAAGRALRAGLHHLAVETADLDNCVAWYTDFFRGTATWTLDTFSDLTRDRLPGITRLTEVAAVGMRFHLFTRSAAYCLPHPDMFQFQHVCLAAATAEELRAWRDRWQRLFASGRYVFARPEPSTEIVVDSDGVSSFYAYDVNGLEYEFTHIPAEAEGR
Protocol: as §1, §2, §3, §4

[3] = Determination of pKa values by spectrophotometric titration; conditions: for pK a value: first catecholic deprotonation, determined spectroscopically from pH 3 to 12.5
Protocol: A buffer system utilizing five different buffers was prepared to cover the pH range of 3.0 to 12.50. A Thermo Scientific Orion Star A211 pH meter was used to measure and determine the pH of each buffer. The pH meter was calibrated using three- and four-point calibration with pH values of 4.00, 7.01, and 10.01 and 4.00, 7.01, 10.01, and 12.00, respectively.
The buffer systems were prepared as previously described and included: NaOAc/HOAc buffers (C = 0.1 M; I = 0.1 M) were used to cover the pH range of 3.0 to 5.50. KH2PO4/K2HPO4 buffers (C = 0.05 M; I = 0.1 M) were used to cover the pH range of 6.00 to 8.00. CHES buffers (C = 0.05 M; I = 0.1 M) were used to cover the pH range of 8.50 to 10.50. Na2HPO4/Na3PO4 buffers (C = 0.05 M; I = 0.1 M) were used to cover the pH range of 11.00 to 12.00. KCl buffers (C = 0.1 M; I = 0.1 M) were used to cover the pH range of 12.00 to 12.50.
The absorbance spectra of the compounds were determined at each pH as previously described. Briefly, a stock solution was prepared for each compound by weighing 2 mg of the compound using a high-precision analytical balance. Each compound was then dissolved in DMSO at a concentration of 10 mM. A UV-transparent 96-well microplate (Corning clear acrylic 96-well UV plate with a UV-transparent flat bottom) was loaded with 196 μL of buffer solution and 4 μL of the catechol stock in each well to get a final concentration of 200 μM. DMSO (4 μL) was added to 196 μL of the appropriate buffer to produce a blank solution for each buffer.
The 96-well plate was loaded into the microplate reader and incubated at 30 °C and shaken for 10 min before the reading. Absorbance readings were completed by using a Synergy HTX 15032517 microplate reader. Each well was read at wavelengths from 210 to 600 nm with 2-nm increments for each scan over a duration of 60 min.
The data were analyzed as previously described. Raw UV-spectra scans were exported to the Excel program. They were first processed by subtracting the reading of the blank solutions from the reading of each compound at the corresponding wavelengths. […] Finally, the spectral difference between the pH 3.0 buffer and the spectra at all other pH values was plotted. Additionally, the spectral difference between the pH 4.0 buffer and the spectra at all other higher pH values was plotted. The wavelengths for the maximum positive and negative absorbance were determined by using the graphs of the spectral difference plots, both for the pH 3.0 and pH 4.0 spectral difference plots. The absolute maximum positive and total absorbance differences at these chosen wavelengths were plotted against the pH of each buffer. The data were imported into the Origin 6.0 program, and the pK a values were determined with a nonlinear regression using eq : 1 Absorbancetotal=εHA−εA−[10^(pH−pKa)]/1+10^(pH−pKa)×[St]
εHA is the extinction coefficients of the acid form of the compound, and εA ^– is the extinction coefficient of the base form of the compound (i.e., the minima and maxima of the absorbance difference curve, respectively), and [S t] is the total compound concentration.

SMILES: N#Cc1cc(O)c(O)cc1CCC(=O)O [6-CyanoDHHCA (5), 3-(2-cyano-4,5-dihydroxyphenyl) propanoic acid]
- activity / turnover as substrate ([1]; LmbB1, aerobic reaction observed by UV–visible spectroscopy): measurable activity
- kcat at 22 °C and 100% O2 saturation ([1]; S. lincolnensis enzyme, pH 7.5): 6.7 × 10^–4 ± 2.8 × 10 ^–5 sec^–1
- kSP,O2 × 10^2 at 22 °C ([1]; S. lincolnensis enzyme, values are kSP × 10^2): 1.4 × 10^–2 ± 3.0 × 10 ^–3 μM^–1 min^–1
- kSP catechol × 10^2 at 22 °C ([1]; S. lincolnensis enzyme, values are kSP × 10^2, kSP = kcat/KM): 3.1 × 10^–2 ± 3.9 × 10 ^–3 μM^–1 min^–1
- kSP, O2 (μM^-1 min^-1) at pH 7.5 relative to L-DOPA x 100 for LmbB1 ([1]; listed as 6-cyanoDHHCA): 0.02%
- kSP, O2 (μM^-1 min^-1) at pH 7.5 relative to L-DOPA x 100 for LmbB1 ([1]; listed as 6-cyanoDHHCA (5)): < 0.1%
- kcat at 22 °C and 100% O2 saturation ([2]; S. hygroscopicus jingganensis enzyme, pH 7.5): 1.1 × 10^–3 ± 1.0 × 10 ^–4 sec^–1
- kSP,O2 × 10^2 at 22 °C ([2]; S. hygroscopicus jingganensis enzyme, values are kSP × 10^2): 4.0 × 10^–2 ± 6.0 × 10 ^–3 μM^–1 min^–1
- kSP catechol × 10^2 at 22 °C ([2]; S. hygroscopicus jingganensis enzyme, values are kSP × 10^2, kSP = kcat/KM): 2.8 × 10^–2 ± 7.1 × 10 ^–3 μM^–1 min^–1
- activity / turnover as substrate ([2]; ShjDDO, aerobic reaction observed by UV–visible spectroscopy): measurable activity
- kSP, O2 (μM^-1 min^-1) at pH 7.5 relative to L-DOPA x 100 for ShjDDO ([2]; listed as 6-cyanoDHHCA): 0.03%
- kSP, O2 (μM^-1 min^-1) at pH 7.5 relative to L-DOPA x 100 for ShjDDO ([2]; listed as 6-cyanoDHHCA (5)): < 0.1%
- ratio of charge states (k1/k-1) predicted by pKa value and Henderson-Hasselbach equation ([3]; at pH 7.35): 1.44
- pK a value [3]: 7.51 ± 0.06
- pK a value ([3]; listed as 6-cyanoDHHCA): 7.51
- Catecholic pKa value relative to L-DOPA x 100 ([3]; percentage of the value for L-DOPA): 85%
